In US12472187B2, “Texaphyrin-Pt(IV) conjugates and compositions for use in overcoming platinum resistance” (BOARD OF REGENTS, THE UNIVERSITY OF TEXAS SYSTEM, priority 2014, dated 2025):

Assays:
A2780 cells = conditions: platinum sensitive A2780 cells; data from Arambula, et al., 2012; cited from earlier work
2780CP cells [1] = test: MTT (tetrazolium dye reduction) proliferation assay, cisplatin resistant 2780CP cells; format: cell-based, human; conditions: ratio of IC50 in 2780CP to A2780; rows for cisplatin and 2 rest on cited IC50
Procedure: The A2780 line was established from a patient's biopsy prior to initiation of any chemotherapeutic regimen (Godwin, et al., 1992). The resistant cell line, 2780CP, used in this study, was established from A2780 cells, as described by Siddik, et al., 1998. The two cell lines have wild-type p53 genotype and/or function. Cells were grown in RPMI containing 10% fetal calf serum and antibiotics (100 μg/mL streptomycin and 100 U/mL penicillin).
The proliferation of exponential phase cultures of A2780 and 2780CP cells was assessed by tetrazolium dye reduction (Mosmann, 1983, which is incorporated herein by reference). […] After a total incubation time of 6 days at 37° C., 50 μL of a stock solution at 3 mg/ml of the tetrazolium dye, 3-(4,5-dimethylthiazol-2-yl)-2,5-diphenyltetrazolium bromide (MTT, Sigma Chemical) were added to each well, the plates incubated at 37° C. for 4 hours, whereupon the medium was removed, the formazan product dissolved in DMSO (50-100 μL) and absorbance values at 570 nm was measured using a microplate reader (Molecular Devices, Sunnyvale, CA). Absorbance values were corrected for background and then normalized to wells containing untreated cells to allow plate-to-plate comparisons. […]
The anti-proliferative effects of conjugates 4 and 5 were assessed with platinum sensitive human ovarian A2780 cells and the isogenic cisplatin resistant 2780CP cell line. […]

2780CP cells [2] = conditions: cisplatin resistant 2780CP cells; data from Arambula, et al., 2012; cited from earlier work
A2780 cancer cells = test: MTT antiproliferative assay of Pt(IV), MGd and MGd+Pt(IV) on A2780 cancer cells; format: cell-based; conditions: agent alone, read-out: IC50 (growth inhibition), single agent
Procedure: A2780 cancer cells were incubated (37° C., 5% CO2 atmosphere, dark) in 96-wells plates at a concentration of 600 cells/well, in a culture medium containing 10% fetal bovine serum and supplemented with penicillin and streptomycin. After 15 h, drugs (Pt(IV), MGd, MGd+Pt(IV)) were added to cells (gradient of concentration, from 0 to 200 μM, 3-fold dilutions) and plates were incubated for five more days using the above conditions. After five days, MTT dye was added in each well (0.15 mg/well) and plates were left for 4 hours in the incubator. Then, supernatant was carefully removed and 50 μL of DMSO were added to dissolve MTT purple formazan crystals. The absorbance was read at 570 nm using a plate reader.

SMILES | IC50 (A2780 cells) | Resistance factor = IC50(2780CP)/IC50(A2780) (2780CP cells [1]) | IC50 (2780CP cells [2]) | IC50 (A2780 cancer cells)
N.N.[Cl][Pt][Cl] [Cisplatin] | 0.33 µM | 18.25 | 7.3 µM | –
CC(=O)[O-].CC(=O)[O-].CCc1c(CC)c2cc3nc(cnc4cc(OCCOCCOCCOC)c(OCCOCCOCCOC)cc4ncc4nc(cc1[n-]2)C(CCCO)=C4C)C(C)=C3CCCO.[Gd+3] [Compound 1, motexafin gadolinium] | – | – | – | 78 µM
